Assay results: ChEMBL document CHEMBL3639072, “Heterocyclic derivatives and their use in the treatment of neurological disorders” (2014)

Key:
Beta-secretase 1 = Beta-secretase 1 (Homo sapiens, UniProt P56817)
Beta-secretase 2 = biological target: T1, Beta-secretase 2 (Homo sapiens, UniProt Q9Y5Z0)
T1 sequence (Q9Y5Z0 whole entry): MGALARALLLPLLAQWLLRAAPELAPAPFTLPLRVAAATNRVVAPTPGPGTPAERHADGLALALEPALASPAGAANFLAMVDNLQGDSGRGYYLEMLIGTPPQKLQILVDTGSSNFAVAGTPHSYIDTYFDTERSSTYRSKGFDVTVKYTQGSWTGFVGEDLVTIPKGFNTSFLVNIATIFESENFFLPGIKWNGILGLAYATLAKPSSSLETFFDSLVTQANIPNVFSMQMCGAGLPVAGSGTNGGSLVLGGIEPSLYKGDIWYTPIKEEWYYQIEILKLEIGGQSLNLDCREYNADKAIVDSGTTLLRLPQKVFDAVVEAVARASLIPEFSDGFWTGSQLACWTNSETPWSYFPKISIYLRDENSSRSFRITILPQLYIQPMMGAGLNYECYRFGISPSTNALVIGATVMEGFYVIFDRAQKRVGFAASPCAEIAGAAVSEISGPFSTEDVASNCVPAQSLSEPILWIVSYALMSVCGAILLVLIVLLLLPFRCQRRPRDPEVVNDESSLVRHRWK

Sequence of Beta-secretase 1 (P56817 whole entry): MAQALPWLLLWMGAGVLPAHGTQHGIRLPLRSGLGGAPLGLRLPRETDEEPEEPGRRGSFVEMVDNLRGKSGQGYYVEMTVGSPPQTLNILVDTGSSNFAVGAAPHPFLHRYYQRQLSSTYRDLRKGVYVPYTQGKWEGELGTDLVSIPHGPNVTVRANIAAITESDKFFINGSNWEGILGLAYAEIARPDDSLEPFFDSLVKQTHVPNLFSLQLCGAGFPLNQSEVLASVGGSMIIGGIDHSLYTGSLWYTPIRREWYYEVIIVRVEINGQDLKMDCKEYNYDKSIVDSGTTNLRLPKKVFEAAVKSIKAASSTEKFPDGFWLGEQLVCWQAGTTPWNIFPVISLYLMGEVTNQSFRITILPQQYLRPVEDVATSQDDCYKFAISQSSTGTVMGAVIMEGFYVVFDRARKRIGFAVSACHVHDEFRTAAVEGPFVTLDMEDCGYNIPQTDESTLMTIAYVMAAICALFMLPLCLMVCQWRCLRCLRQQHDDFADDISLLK

IC50 (Beta-secretase 1) [nM]	IC50 (Beta-secretase 2) [nM]	SMILES
200	1000	C[C@@]1(c2nc(NC(=O)c3ncc(OCCCF)nc3N)ccc2F)CO[C@@](C)(C(F)(F)F)C(N)=N1
230	130	Cc1cnc(C(=O)Nc2ccc(F)c([C@]3(C)CO[C@@](C)(C(F)(F)F)C(N)=N3)n2)c(C)n1
